According to BindingDB's records for patent US10479784 (VERTEX PHARMACEUTICALS INCORPORATED, 2019):

Target: Serine/threonine-protein kinase ATR (Homo sapiens, UniProt Q13535)
Assay: Inhibition Assay
Procedure: Compounds were screened for their ability to inhibit ATR kinase using a radioactive-phosphate incorporation assay. Assays were carried out in a mixture of 50 mM Tris/HCl (pH 7.5), 10 mM MgCl2 and 1 mM DTT. Final substrate concentrations were […] (3mCi 33P ATP/mmol ATP, Perkin Elmer) and 800 μM target peptide ([…]).Assays were carried out at 25° C. in the presence of 5 nM full-length ATR. An assay stock buffer solution was prepared containing all of the reagents listed above, with the exception of ATP and the test compound of interest. […] The plate was pre-incubated for 10 minutes at 25° C. and the reaction initiated by addition of 15 μL [γ-33P]ATP (final concentration 10 μM).The reaction was stopped after […] by the addition of 30 μL 0.1M phosphoric acid containing 2 mM ATP. A multiscreen phosphocellulose filter 96-well plate (Millipore, Cat no. MAPHN0B50) was pretreated with 100 μL 0.2M phosphoric acid prior to the addition of 45 μL of the stopped assay mixture.

Serine/threonine-protein kinase ATR, sequence (Q13535 whole entry): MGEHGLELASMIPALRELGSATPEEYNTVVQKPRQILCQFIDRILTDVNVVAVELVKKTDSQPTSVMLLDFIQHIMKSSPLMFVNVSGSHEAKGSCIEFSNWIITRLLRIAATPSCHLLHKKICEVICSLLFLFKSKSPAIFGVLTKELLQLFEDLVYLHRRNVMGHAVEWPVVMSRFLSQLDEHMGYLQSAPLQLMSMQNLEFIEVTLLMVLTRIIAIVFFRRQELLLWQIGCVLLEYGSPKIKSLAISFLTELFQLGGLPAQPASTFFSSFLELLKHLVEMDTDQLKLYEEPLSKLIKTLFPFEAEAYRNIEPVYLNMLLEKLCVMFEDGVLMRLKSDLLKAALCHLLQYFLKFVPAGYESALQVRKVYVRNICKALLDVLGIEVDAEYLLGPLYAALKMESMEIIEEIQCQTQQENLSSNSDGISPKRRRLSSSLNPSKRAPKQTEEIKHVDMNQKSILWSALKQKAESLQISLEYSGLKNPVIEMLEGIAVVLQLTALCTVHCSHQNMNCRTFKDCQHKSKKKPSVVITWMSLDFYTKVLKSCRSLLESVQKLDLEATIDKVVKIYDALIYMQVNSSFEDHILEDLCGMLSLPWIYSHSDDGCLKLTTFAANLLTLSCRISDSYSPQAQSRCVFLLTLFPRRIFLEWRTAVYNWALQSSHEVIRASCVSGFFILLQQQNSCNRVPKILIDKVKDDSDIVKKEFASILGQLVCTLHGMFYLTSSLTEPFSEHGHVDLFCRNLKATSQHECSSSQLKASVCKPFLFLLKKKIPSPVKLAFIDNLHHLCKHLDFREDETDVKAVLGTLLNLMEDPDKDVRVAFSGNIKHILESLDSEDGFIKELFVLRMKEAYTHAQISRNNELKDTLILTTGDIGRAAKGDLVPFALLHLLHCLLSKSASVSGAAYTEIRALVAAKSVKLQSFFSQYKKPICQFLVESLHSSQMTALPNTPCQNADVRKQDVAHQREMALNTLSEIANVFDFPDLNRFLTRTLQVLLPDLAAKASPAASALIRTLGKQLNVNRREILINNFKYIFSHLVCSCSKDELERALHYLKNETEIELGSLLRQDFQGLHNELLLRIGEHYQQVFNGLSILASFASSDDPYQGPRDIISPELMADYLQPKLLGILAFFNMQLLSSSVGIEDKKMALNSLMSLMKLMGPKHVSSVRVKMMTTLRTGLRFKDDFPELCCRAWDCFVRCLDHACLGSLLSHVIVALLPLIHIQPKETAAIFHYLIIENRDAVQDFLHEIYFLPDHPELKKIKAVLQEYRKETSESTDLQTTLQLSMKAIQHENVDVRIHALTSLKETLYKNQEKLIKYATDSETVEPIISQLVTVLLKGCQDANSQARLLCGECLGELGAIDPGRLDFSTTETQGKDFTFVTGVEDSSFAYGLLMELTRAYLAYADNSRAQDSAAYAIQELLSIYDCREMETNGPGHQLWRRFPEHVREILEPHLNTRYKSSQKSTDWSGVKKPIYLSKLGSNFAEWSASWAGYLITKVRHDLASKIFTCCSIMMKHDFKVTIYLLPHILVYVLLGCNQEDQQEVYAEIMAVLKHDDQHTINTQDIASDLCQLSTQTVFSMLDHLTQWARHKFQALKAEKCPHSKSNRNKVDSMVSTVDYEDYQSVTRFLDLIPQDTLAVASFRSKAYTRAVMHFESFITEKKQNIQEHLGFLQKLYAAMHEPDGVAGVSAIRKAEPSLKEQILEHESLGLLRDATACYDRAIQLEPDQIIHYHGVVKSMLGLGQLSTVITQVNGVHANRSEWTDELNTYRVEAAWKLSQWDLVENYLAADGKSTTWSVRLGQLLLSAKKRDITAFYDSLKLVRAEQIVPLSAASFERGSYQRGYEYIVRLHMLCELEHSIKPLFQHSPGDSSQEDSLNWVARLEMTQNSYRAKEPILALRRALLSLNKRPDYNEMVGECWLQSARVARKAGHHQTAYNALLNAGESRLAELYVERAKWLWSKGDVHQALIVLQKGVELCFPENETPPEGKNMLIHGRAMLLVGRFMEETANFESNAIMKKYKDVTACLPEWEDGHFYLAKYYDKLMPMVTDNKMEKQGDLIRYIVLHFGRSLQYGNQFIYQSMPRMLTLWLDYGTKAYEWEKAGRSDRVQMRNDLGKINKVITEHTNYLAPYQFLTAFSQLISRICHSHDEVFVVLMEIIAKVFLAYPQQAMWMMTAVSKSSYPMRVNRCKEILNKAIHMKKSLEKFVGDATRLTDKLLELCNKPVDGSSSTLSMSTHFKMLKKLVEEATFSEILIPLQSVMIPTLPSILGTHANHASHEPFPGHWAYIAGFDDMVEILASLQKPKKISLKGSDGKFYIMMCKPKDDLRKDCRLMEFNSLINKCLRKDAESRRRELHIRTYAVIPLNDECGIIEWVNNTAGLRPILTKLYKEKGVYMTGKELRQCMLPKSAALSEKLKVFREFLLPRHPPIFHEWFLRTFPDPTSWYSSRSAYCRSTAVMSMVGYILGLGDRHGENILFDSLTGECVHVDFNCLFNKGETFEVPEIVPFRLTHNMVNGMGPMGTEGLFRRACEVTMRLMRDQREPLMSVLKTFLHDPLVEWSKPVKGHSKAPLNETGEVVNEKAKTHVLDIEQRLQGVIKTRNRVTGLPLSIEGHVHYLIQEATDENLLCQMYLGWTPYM

## CNCc1ccc(C(=N)OC(=N)c2nc(-c3ccc(S(=O)(=O)C(C)C)c(OC(F)(F)F)c3)cnc2N)cc1 [US10479784, Compound IA-290]
  Ki: < 10 nM

## CNCc1ccc(C(=N)OC(=N)c2nc(-c3ccc([S+]([O-])C(C)CCOC)cc3)cnc2N)c(F)c1 (configuration not stated) [US10479784, Compound IA-332]
  Ki: < 10 nM
